Here are results for 92 molecules from PubChem BioAssay AID743417 (Broad Institute, 2014).

As usually defined, the AC50 is the concentration giving half of the maximal activity seen.

Results filed as inconclusive are left out. The source made the active and inactive calls.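 Rule for the calls: active = compounds lowering the luciferase signal with a fitted half-maximal dose at most twice their top valid dose (cut at about 30 µM in these data); inconclusive = flat fits with moderate signal loss, or poor fits; inactive = the rest.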

This test deals with Clone20 osteoblast Shn3 3'UTR firefly luciferase, 24 h. The test can be described thus: Schnurri-3 3'UTR-luciferase signal suppressors – cell-based, Clone20 osteoblasts, luminescence, dry powder, set 2, dose response (AID 743417).
As for `C=C1C(=O)[C@@]23[C@H](O)C[C@@H]4C(C)(C)CC[C@H](O)[C@@]4(C)[C@@H]2CC[C@@H]1[C@H]3O`, the concentration at half-maximal activity (AC50) was 1290 nM.
Under `O=C(Nc1nc(-c2ccccn2)cs1)c1cccc(-n2cnnn2)c1` stands 2580 nM; under `CC(Sc1nc2ccccc2c(=O)n1C)C(=O)N(C)C1CCCCC1` (configuration not stated), 2270 nM; under `COc1ccc(C(NC(=O)C(C)C)c2ccc3cccnc3c2O)cc1` (configuration not stated), 1350 nM.
The figure for `COc1cnc(-c2ccccn2)nc1N(C)c1ccccc1` is 1830 nM; for `Cc1cc(Br)c2c(c1)/C(=C/C(=O)c1cccs1)C(=O)N2` it is 19900 nM.
As to `COc1ccc(OC)c(NC(=O)CN(Cc2ccc(F)cc2)C2CCCCC2)c1`, the AC50 was 4990 nM.
Under `O=S(=O)(c1cc(F)ccc1F)N1CCN(c2ncnc3ccccc23)CC1` stands 1850 nM; under `COc1ccc(NC(=O)c2nc(S(=O)(=O)Cc3cccc(C)c3)ncc2Cl)c(OC)c1`, 299 nM.
The figure for `O=C1NC2C(=CC(O)C(O)C2O)c2cc3c(c(O)c21)OCO3` (configuration not stated) is under 260 nM; for `CCC12CN(S(=O)(=O)c3ccc(C)cc3)CC(CC)(CN(S(=O)(=O)c3ccc(C)cc3)C1)C2=O` it is 3480 nM.
Under `CC(OC(=O)c1ccc(S(C)(=O)=O)c([N+](=O)[O-])c1)C(=O)NC1C2CC3CC(C2)CC1C3` (configuration not stated) stands 1400 nM.
Take `COc1ccc(/C=C/C(=O)c2ccc(C(=O)/C=C/c3ccc(OC)c(OC)c3)cc2)cc1OC`: the half-maximal activity concentration (AC50) was 5180 nM.
On to `CSc1nnc(NC(=O)c2nc(S(=O)(=O)Cc3ccccc3)ncc2Cl)s1`, for which the AC50 was 1350 nM.
Regarding `CC(C)(C)C(=O)Cn1ncc(Br)c(Br)c1=O`, the AC50 was 9510 nM.
The figure for `CCCCC(=O)NC(c1ccc(C(C)C)cc1)c1ccc2cccnc2c1O` (configuration not stated) is 570 nM.
Under `CCOC(=O)c1c(CSCc2ccccc2)oc2ccc(O)c(CN(C)C)c12` stands 9790 nM; under `CCOC(=O)c1c(C)[nH]c(C)c1C(=O)CSc1nc2ccccc2c(=O)n1-c1ccc(CC)cc1`, 5360 nM; under `Cc1ccccc1OCC(O)Cn1c(=N)n(Cc2ccccc2)c2ccccc21` (configuration not stated), 2250 nM.
For `COc1ccc(C(NC(=O)c2cccnc2)c2cc(Cl)c3cccnc3c2O)cc1OC` (configuration not stated), the AC50 is 1880 nM.
The figure for `COc1ccc(OCC(=O)NNC(=S)NC(=O)c2ccc(Br)o2)cc1` is 5270 nM; for `CC(C)(O)/C=C/C(=O)C(C)(O)C1C(O)CC2(C)C3CC=C4C(C=C(O)C(=O)C4(C)C)C3(C)C(=O)CC12C` (configuration not stated) it is 1830 nM; for `O=C(Nc1nc2ccccc2s1)C1CCN(S(=O)(=O)c2cc([N+](=O)[O-])ccc2Cl)CC1` it is 3070 nM.
The figure for `O=S(=O)(/C(=C\c1ccc(C(F)(F)F)cc1)c1nc2ccccc2[nH]1)c1ccccc1` is 1850 nM; for `Cc1cc(Nc2cccc([N+](=O)[O-])c2)n2c(nc3ccccc32)c1C#N` it is 1900 nM; for `Cc1sc2ncnc(N3CCN(S(=O)(=O)c4ccccc4)CC3)c2c1C` it is 2300 nM.
Under `COC(=O)C1=C(c2ccc(OCc3ccccc3)cc2)C[C@@H]2CC[C@H]1N2C(=O)NCc1ccc(OC)c(OC)c1` stands 19700 nM.
As to `CC(C)Cn1c(N)c(C(=O)CSc2ccc3c(c2)OCCO3)c(=O)n(C)c1=O`, the AC50 is 674 nM.
Under `Cc1ccc(-c2cn3cc(C)ccc3n2)cc1` stands 1320 nM.
Under `O=C(Nc1cccc(C(F)(F)F)c1)c1sc(Cl)nc1C(F)(F)F` stands 9060 nM; under `COc1ccc(C(=O)Cn2c(C(=O)/C=C/c3ccccc3)nc3ccccc32)cc1`, 4470 nM; under `Cc1ccc(C(=O)OCn2ncc(Cl)c(Cl)c2=O)cc1`, 5070 nM.
Under `CN(Cc1ccc(OC(F)F)cc1)C(=O)c1cccc(S(=O)(=O)N2CCN(c3ccccc3)CC2)c1` stands 2590 nM; under `O=C(Nc1nc2cc3c(cc2s1)OCCO3)C1=COCCO1`, 2170 nM.
`N#C/C(=C(\O)Cc1ccccc1)c1nc2ccccc2[nH]1`: the AC50 was > 70000 nM (inactive).
The figure for `CC(=O)N1c2ccc(S(=O)(=O)N3CCC(C(=O)N4CCN(c5cccc(C(F)(F)F)c5)CC4)CC3)cc2CC1C` (configuration not stated) is 1280 nM; for `O=C1S/C(=C\c2ccc(N3CCOCC3)o2)C(=O)N1Cc1c(F)cccc1Cl` it is 6720 nM; for `CC(=O)Nc1ccc(NC(=O)c2nc(S(=O)(=O)Cc3ccccc3)ncc2Cl)cc1` it is 773 nM.
The figure for `Cc1ccc(NN2C(=O)C=C(c3ccc(Cl)cc3)C2=O)cc1` is 6530 nM.
`O=[N+]([O-])c1ccc(O)c(-c2cc(C(F)(F)F)nc(-c3ccccc3)n2)c1`: the half-maximal activity concentration (AC50) was 2730 nM.
Under `O=[N+]([O-])c1ccc(S(=O)(=O)c2ccccc2)nc1` stands 1740 nM; under `CCCCC(=O)NC(c1ccccc1)c1ccc2cccnc2c1O` (configuration not stated), 2350 nM; under `CCOc1ccc(CCN2C(=S)N([C@@H](CC(C)C)CN3CCCC3CN3C(=S)NC[C@@H]3Cc3ccc(O)cc3)C[C@@H]2Cc2ccc(O)cc2)cc1` (some centres not stated), 11500 nM.
Under `O=C(CSc1c2c(nc3ccc(Cl)cc13)CCCC2)NCc1ccco1` stands 5710 nM; under `CC(C)C1C(=O)N(Cc2cn(CCC3OCCO3)nn2)CCS(=O)(=O)N1Cc1ccc(-c2ccc(Cl)cc2)cc1` (configuration not stated), 2130 nM; under `O=C(CSc1nnc(Cn2nnc3ccccc32)o1)N(Cc1ccc(Cl)cc1)c1ccccc1`, 2290 nM.
The figure for `CCC(=O)NC(c1ccco1)c1cc(Cl)c2cccnc2c1O` (configuration not stated) is 1310 nM.
On to `C=C1C(=O)C23C(O)C1CCC2C12CCCC(C)(COC(C)=O)C1C(O)C3(O)OC2` (configuration not stated), for which the AC50 was 771 nM.
The figure for `COc1ccc(CNCC(O)COc2cccc3c2OC(C)(C)C3)cc1` (configuration not stated) is 1680 nM; for `CCOC(=O)CS(=O)(=O)c1nc(-c2ccc(F)cc2)cc(C(F)(F)F)n1` it is 1780 nM.
For `Cc1ccc(S(=O)(=O)N2CCC3(CC2)OCCN3S(=O)(=O)c2c(C)cc(C)cc2C)cc1`, the AC50 was 6810 nM.
On to `Cc1nc2ccc(NS(=O)(=O)c3ccc4c(c3)OCCO4)cc2s1`, for which the half-maximal activity concentration (AC50) is 635 nM.
Under `COc1cc(/C=C/C(=O)c2ccc3c(c2)OCCO3)cc(Br)c1OCC(=O)N(C)C` stands 2630 nM; under `COc1ccc(C2/C=C\CN(S(=O)(=O)c3ccc(C)cc3)[C@H](Cc3ccccc3)C(=O)N2Cc2ccc(F)cc2)cc1` (some centres not stated), 12900 nM.
The figure for `CC(=O)N1CCCc2cc(S(=O)(=O)N3CCCC(C(=O)N4CCN(c5cccc(Cl)c5)CC4)C3)ccc21` (configuration not stated) is 1900 nM.
Under `O=C(Nc1nc(-c2ccccc2)cs1)C1CCCCN1S(=O)(=O)c1ccccc1` (configuration not stated) stands 5140 nM; under `COc1ccc(NS(=O)(=O)c2ccc(C(=O)N3CCCCCC3)cc2)cc1`, 4510 nM; under `Cc1cc(C)c(CN2CCN(C(=O)Cn3cnc4c(NCc5ccccc5)ncnc43)CC2)c(C)c1`, 417 nM.
For the molecule `COc1ccc(-c2nsc3c(N4CCCCC4C)ncnc23)cc1` (configuration not stated), the half-maximal activity concentration (AC50) was under 260 nM.
The figure for `C=C1C(=O)[C@@]23[C@H](O)C[C@@H]4C(C)(C)CC[C@H](O)[C@]4(C)[C@@H]2C[C@H](O)[C@@H]1[C@H]3O` is 2950 nM; for `COc1ccccc1/C=C/CN1CCC(n2nccc2NC(=O)CCc2ccccc2)CC1` it is 1910 nM; for `Oc1c(C(c2ccccc2Cl)N2CCCC2)ccc2cccnc12` (configuration not stated) it is 5770 nM.
Under `CCCOc1ccc(C(=O)C(CN2CCCC2)c2ccccc2)cc1` (configuration not stated) stands 4840 nM; under `Cc1nc2scc(C)n2c(=O)c1S(=O)(=O)Nc1ccc(N2CCOCC2)c(Cl)c1`, 1670 nM; under `Cc1ccccc1C(=O)N1CCN(c2ccc(NC(=O)c3ccc([N+](=O)[O-])o3)cc2)CC1`, 864 nM.
Under `CCOc1cc(CNCCc2ccc(S(N)(=O)=O)cc2)ccc1OCc1ccccc1` stands 2440 nM; under `CCC(=O)NC(c1ccc(OC)c(OC)c1)c1cc(Cl)c2cccnc2c1O` (configuration not stated), under 260 nM; under `COc1cnc(-c2ccccn2)nc1NC(C)C`, 2810 nM.
For the molecule `Cc1ccc(-c2nc(-c3ccccn3)no2)cc1`, the concentration at half-maximal activity (AC50) was 1960 nM.
The figure for `CCCCCCn1c(NCC)nc2c1c(=O)n(C)c(=O)n2C` is 834 nM.
Under `Cc1cccc(N2C(=O)NC(=O)/C(=C\C=C\c3ccco3)C2=O)c1` stands 3060 nM; under `Cc1cc(C(=O)COC(=O)c2ccccc2Br)c(C)n1CC1CCCO1` (configuration not stated), > 70000 nM (inactive); under `CCC(=O)N1c2ccc(S(=O)(=O)N3CCN(c4ccc([N+](=O)[O-])cc4)CC3)cc2CC1C` (configuration not stated), 1930 nM.
The figure for `COc1ccccc1CNc1nc(Nc2cccc(-c3cnco3)c2)c2sccc2n1` is 5610 nM; for `CC(C)(C)c1ccc(-n2ncc3c2CCCC3NC(=O)C2(C(N)=O)CC2)cc1` (configuration not stated) it is 589 nM.
`CCN(CC)S(=O)(=O)c1ccc(N(C)Cc2ccc(C(F)(F)F)cc2)nc1`: the AC50 was 5850 nM.
For `Cc1ccc(Oc2ccc(OCC(=O)Nc3ccncc3)cc2)cc1`, the AC50 is 1550 nM.
The figure for `Oc1c(C(Nc2ccccn2)c2ccccn2)ccc2cccnc12` (configuration not stated) is 4360 nM.
Under `Cc1cccc(C(C)(C)C)c1OCCN1CCCC1` stands 34200 nM; under `O=C(Nc1ccc(Cc2ccncc2)cc1)c1ccc([N+](=O)[O-])o1`, 2710 nM; under `Cc1ccc(S(=O)(=O)Nc2ccc3ncccc3c2)cc1`, 2200 nM.
The figure for `S=C(Nc1ccccc1)Nc1ccc(OCc2ccc(Cl)cc2Cl)cc1` is 405 nM; for `Cn1c2c(c(=O)n(C)c1=O)C(C(F)(F)F)(C(F)(F)F)N=C(c1ccc(Cl)cc1)N2` it is 1470 nM.
Take `CC(=O)NC(c1cccs1)c1cc(F)c2cccnc2c1O` (configuration not stated): the AC50 was 1670 nM.
Under `O=[N+]([O-])c1c(NCCCO)cc(Sc2nc3ccccc3s2)c2nonc12` stands 1580 nM; under `Cc1ccc2nc(-c3ccc(O)c(O)c3)cn2c1`, 4200 nM.
Under `Cc1ccccc1C(=O)NC(=S)Nc1ccc(N2CCN(C(=O)c3ccccc3)CC2)cc1` stands 1880 nM.
For the molecule `CC(C)n1c(/C=C/[C@@H](O)C[C@@H](O)CC(=O)O)c(-c2ccc(F)cc2)c2ccccc21`, the AC50 was 2400 nM.
Under `COc1cccc(CN(C)C(=O)c2cccc(S(=O)(=O)N3CCN(Cc4ccccc4)CC3)c2)c1OC` stands 4940 nM; under `Cc1nc([N+](=O)[O-])c(Br)n1CC(=O)c1ccc2ccccc2c1`, 10600 nM.
For `Nc1cc2c(cc1Br)[nH]c(=O)c1ccccc12`, the AC50 is 5460 nM.
Under `CCCc1nc2c(=O)n(C)c(=O)nc-2n(C)n1` stands 2170 nM.
